Earlier results in patent publication US20140213664A1, “PROCESSES, PRODUCTS AND METHODOLOGIES FOR MAKING AND USING NOVEL BIOADVANTAGED SWEETENERS” (priority 2013, published 2014).

Experiments:
[1] = system: STZ-induced diabetic rats
[2] = injected hypodermically

O=CC=Cc1ccccc1 [Cinnamaldehyde]
HDL-cholesterol [1]: increasing
antihyperglycemic effect [1]: significant antihyperglycemic effect
total cholesterol and triglyceride levels [1]: lowering

O=C(CCc1ccc(O)cc1)c1c(O)cc(O)cc1O[C@@H]1O[C@H](CO)[C@@H](O)[C@H](O)[C@H]1O [Phlorizin]
glycosuria [2]: produces glycosuria
